Measured values taken from article doi:10.1101/2024.08.13.607785v1 (biorxiv, 2024).
Read-outs that look alike come from different tables or passages of the source. Blank lines part the entries; values can stand above or below the compound they belong to.

Tests used:
Assay in all cases: biochemical
[1] = biological target: Cyclin-dependent kinase 4 ; CDK4 ; P11802 (Homo sapiens, UniProt P11802); design: species or system mixed lysate of K562, MV4-11, THP-1, NCI-H1155
[2] = biological target: Calcium/calmodulin-dependent protein kinase kinase 2 ; CAMKK2 ; Q96RR4 (Homo sapiens, UniProt Q96RR4); design: species or system mixed lysate of K562, MV4-11, THP-1, NCI-H1155
Calcium/calmodulin-dependent protein kinase kinase 2 ; CAMKK2 ; Q96RR4, sequence (Q96RR4 whole entry, one chain of several): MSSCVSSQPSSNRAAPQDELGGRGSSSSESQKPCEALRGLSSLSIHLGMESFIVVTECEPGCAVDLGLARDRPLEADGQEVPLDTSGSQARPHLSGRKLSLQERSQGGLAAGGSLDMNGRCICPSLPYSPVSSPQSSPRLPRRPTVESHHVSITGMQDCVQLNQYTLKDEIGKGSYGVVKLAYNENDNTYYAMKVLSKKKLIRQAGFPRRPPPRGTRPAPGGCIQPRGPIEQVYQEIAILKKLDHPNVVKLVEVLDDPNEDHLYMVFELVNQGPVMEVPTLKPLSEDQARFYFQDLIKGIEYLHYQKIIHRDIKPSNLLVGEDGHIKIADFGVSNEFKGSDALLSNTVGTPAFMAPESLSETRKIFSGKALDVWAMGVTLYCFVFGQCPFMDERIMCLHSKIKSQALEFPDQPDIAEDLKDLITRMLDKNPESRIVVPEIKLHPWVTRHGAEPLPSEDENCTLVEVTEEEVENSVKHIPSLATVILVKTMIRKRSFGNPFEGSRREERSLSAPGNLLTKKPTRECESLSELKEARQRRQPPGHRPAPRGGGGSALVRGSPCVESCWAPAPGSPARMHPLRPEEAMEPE

[3] = biological target: Cyclin-dependent-like kinase 5 ; CDK5 ; Q00535 (Homo sapiens, UniProt Q00535); design: species or system mixed lysate of K562, MV4-11, THP-1, NCI-H1155
Cyclin-dependent-like kinase 5 ; CDK5 ; Q00535, sequence (Q00535 whole entry, one chain of several): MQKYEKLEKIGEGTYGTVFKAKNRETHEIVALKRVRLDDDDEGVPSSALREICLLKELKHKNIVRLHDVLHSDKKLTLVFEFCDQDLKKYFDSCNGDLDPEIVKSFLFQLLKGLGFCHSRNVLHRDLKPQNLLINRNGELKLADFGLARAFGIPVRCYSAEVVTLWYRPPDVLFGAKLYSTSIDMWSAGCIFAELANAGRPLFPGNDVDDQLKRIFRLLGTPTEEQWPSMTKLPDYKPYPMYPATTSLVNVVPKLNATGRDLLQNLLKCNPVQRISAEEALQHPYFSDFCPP

[4] = biological target: Cyclin-dependent kinase 1 ; CDK1 ; P06493 (Homo sapiens, UniProt P06493); design: species or system mixed lysate of K562, MV4-11, THP-1, NCI-H1155
Cyclin-dependent kinase 1 ; CDK1 ; P06493, sequence (P06493 whole entry, the tested form may be a part, one chain of several): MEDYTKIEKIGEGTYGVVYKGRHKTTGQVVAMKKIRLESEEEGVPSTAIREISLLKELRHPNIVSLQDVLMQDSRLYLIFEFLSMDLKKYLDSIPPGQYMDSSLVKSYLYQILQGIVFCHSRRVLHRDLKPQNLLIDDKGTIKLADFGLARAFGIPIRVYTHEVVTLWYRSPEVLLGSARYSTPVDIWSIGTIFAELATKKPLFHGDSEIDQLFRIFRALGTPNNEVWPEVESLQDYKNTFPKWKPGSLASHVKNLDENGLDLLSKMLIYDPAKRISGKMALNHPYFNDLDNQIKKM

[5] = biological target: T1, Discoidin domain-containing receptor 2 ; DDR2 ; Q16832 (Homo sapiens, UniProt Q16832); design: species or system mixed lysate of K562, MV4-11, THP-1, NCI-H1155
T1 sequence (Q16832 1-855): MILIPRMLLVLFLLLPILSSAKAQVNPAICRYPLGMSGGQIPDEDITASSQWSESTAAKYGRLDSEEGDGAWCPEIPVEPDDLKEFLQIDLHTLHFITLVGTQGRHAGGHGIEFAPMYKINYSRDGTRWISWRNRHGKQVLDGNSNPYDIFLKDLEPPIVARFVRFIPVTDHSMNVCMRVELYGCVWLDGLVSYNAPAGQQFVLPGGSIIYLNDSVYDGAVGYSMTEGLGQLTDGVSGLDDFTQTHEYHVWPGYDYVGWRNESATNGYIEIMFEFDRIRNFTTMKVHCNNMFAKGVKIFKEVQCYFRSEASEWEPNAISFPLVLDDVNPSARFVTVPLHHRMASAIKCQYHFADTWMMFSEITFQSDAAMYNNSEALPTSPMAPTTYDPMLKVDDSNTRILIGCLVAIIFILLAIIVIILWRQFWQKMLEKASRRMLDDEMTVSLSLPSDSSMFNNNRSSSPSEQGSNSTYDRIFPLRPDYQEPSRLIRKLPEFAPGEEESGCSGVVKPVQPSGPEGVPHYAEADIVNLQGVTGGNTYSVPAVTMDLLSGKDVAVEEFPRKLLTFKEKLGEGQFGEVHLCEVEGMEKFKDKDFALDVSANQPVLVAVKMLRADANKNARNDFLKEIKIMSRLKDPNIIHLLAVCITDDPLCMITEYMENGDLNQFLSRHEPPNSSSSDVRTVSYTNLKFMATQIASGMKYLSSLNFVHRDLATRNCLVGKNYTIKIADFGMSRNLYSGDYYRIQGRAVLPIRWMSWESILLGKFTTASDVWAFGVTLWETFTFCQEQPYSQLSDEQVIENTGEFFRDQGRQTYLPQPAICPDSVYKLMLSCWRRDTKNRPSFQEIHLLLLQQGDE

[6] = biological target: Cyclin-dependent kinase 9 ; CDK9 ; P50750 (Homo sapiens, UniProt P50750); design: species or system mixed lysate of K562, MV4-11, THP-1, NCI-H1155
Cyclin-dependent kinase 9 ; CDK9 ; P50750, sequence (P50750 whole entry, one chain of several): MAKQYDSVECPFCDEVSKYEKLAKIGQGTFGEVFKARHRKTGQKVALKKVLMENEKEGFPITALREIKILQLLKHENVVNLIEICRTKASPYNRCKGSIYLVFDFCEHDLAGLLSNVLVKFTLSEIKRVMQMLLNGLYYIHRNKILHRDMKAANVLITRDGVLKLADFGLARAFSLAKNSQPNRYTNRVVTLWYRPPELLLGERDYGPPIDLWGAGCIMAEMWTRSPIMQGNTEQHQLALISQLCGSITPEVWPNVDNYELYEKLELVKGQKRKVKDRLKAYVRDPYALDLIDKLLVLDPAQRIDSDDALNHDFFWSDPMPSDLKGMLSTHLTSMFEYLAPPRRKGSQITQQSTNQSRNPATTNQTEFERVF

[7] = biological target: Cyclin-dependent kinase 19 ; CDK19 ; Q9BWU1 (Homo sapiens, UniProt Q9BWU1); design: species or system mixed lysate of K562, MV4-11, THP-1, NCI-H1155
Cyclin-dependent kinase 19 ; CDK19 ; Q9BWU1, sequence (Q9BWU1 whole entry, one chain of several): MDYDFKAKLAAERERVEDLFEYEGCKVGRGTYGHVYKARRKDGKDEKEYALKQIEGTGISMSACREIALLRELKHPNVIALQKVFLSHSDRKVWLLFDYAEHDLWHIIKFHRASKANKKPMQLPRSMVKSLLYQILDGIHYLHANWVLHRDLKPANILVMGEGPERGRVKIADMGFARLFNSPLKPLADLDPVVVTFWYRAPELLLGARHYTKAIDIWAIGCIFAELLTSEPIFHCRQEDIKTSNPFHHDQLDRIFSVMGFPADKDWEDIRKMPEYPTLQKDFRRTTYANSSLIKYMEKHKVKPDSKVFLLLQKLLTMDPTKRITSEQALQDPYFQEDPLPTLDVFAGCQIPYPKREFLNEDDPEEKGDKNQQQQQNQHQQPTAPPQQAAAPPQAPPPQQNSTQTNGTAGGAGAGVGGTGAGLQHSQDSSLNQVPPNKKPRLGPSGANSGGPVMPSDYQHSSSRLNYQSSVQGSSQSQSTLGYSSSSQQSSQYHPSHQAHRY

[8] = biological target: Mast/stem cell growth factor receptor Kit ; KIT ; P10721 (Homo sapiens, UniProt P10721); design: species or system mixed lysate of K562, MV4-11, THP-1, NCI-H1155
Mast/stem cell growth factor receptor Kit ; KIT ; P10721, sequence (P10721 whole entry, the tested form may be a part, canonical isoform, one chain of several): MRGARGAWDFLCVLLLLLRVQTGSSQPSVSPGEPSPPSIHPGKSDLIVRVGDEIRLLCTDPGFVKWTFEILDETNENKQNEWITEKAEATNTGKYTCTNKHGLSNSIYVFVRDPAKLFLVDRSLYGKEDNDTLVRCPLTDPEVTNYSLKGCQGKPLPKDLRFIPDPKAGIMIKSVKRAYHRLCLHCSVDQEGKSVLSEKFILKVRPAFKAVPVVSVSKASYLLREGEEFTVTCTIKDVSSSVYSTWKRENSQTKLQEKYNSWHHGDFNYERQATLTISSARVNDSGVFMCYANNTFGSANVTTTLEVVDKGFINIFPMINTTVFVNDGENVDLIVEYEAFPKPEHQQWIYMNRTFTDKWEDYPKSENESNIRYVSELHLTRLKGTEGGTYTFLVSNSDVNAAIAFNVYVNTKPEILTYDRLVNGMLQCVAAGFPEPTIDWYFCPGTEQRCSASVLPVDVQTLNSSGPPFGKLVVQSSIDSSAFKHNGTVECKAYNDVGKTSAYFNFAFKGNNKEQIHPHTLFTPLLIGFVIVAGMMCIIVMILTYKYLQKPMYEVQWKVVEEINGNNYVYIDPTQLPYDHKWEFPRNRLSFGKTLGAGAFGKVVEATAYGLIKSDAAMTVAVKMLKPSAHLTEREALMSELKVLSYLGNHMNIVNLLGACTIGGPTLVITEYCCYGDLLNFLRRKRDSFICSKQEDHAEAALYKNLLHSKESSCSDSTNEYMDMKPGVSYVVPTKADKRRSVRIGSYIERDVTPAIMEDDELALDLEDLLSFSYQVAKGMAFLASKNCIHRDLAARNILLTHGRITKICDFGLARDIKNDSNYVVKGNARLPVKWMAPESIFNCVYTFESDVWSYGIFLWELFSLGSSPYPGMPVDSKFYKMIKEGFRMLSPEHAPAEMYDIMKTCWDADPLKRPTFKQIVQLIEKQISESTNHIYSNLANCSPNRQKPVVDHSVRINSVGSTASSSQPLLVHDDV

[9] = biological target: Isoform 4 of LIM domain kinase 1 ; LIMK1 ; P53667-4 (Homo sapiens, UniProt P53667); design: species or system human cell line lysate
[10] = biological target: Isoform 2 of Tyrosine-protein kinase Fyn ; FYN ; P06241-2 (Homo sapiens, UniProt P06241); design: species or system human cell line lysate
[11] = biological target: Isoform 2 of Casein kinase I isoform delta ; CSNK1D ; P48730-2 (Homo sapiens, UniProt P48730); design: species or system human cell line lysate
Isoform 2 of Casein kinase I isoform delta ; CSNK1D ; P48730-2, sequence (P48730 whole entry, canonical isoform): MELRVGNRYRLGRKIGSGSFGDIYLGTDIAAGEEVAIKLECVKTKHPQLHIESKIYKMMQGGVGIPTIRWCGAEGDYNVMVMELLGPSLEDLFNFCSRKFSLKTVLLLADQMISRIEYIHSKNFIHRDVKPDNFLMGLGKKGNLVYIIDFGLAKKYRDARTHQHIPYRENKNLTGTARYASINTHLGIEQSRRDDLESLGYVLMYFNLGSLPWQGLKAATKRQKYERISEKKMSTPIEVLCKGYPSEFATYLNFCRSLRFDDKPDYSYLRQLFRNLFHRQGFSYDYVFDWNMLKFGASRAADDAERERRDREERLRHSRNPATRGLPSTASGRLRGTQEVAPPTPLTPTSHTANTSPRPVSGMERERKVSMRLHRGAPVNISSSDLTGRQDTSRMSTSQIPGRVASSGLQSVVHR

[12] = biological target: Serine/threonine-protein kinase 35 ; STK35 ; Q8TDR2 (Homo sapiens, UniProt Q8TDR2); design: species or system human cell line lysate
Serine/threonine-protein kinase 35 ; STK35 ; Q8TDR2, sequence (Q8TDR2 whole entry, canonical isoform, one chain of several): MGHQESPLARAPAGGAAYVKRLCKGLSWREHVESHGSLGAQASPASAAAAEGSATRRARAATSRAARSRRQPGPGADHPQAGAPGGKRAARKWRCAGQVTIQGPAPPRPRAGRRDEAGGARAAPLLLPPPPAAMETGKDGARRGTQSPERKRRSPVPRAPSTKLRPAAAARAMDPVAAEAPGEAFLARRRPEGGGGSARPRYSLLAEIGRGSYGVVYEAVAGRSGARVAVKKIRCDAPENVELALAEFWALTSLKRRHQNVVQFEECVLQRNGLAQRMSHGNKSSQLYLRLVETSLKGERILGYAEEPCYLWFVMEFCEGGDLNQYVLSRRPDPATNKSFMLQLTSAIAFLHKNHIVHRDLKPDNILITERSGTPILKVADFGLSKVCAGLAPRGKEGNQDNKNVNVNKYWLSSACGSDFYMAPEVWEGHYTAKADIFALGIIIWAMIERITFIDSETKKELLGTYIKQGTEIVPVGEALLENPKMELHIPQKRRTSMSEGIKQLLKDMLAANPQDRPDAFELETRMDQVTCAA

[13] = biological target: Isoform 2 of 5'-AMP-activated protein kinase catalytic subunit alpha-1 ; PRKAA1 ; Q13131-2 (Homo sapiens, UniProt Q13131); design: species or system human cell line lysate
[14] = biological target: Dual specificity protein kinase TTK ; TTK ; P33981 (Homo sapiens, UniProt P33981); design: species or system human cell line lysate
Dual specificity protein kinase TTK ; TTK ; P33981, sequence (P33981 whole entry): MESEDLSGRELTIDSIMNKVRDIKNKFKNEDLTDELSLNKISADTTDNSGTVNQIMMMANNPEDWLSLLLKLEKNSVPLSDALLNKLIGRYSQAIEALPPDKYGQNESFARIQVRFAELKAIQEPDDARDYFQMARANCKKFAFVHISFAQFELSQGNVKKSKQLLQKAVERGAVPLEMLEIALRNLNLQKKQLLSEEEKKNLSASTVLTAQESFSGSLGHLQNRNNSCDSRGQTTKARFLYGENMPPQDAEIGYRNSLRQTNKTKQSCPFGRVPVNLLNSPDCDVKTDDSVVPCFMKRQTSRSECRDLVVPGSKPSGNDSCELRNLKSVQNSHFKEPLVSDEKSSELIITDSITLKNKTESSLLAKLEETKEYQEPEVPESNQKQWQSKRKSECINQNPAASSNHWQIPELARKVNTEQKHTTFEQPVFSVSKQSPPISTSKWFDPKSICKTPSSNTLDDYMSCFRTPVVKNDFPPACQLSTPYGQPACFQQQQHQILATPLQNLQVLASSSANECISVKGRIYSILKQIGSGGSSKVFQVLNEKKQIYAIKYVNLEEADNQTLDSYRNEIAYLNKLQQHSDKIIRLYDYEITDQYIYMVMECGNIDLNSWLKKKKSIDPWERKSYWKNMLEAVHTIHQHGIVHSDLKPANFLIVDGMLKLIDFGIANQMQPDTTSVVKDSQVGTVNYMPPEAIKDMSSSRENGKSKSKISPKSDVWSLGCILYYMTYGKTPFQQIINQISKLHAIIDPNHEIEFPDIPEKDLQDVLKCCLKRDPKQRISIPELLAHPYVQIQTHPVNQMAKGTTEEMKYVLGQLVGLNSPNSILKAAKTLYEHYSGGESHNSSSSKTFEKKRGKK

[15] = read-out: BAY-1251152 (10 µM) / %Intensity relative to DMSO
[16] = read-out: BAY-1143572 (10 µM) / %Intensity relative to DMSO

remaining activity at 10 µM [1, 15]: 121%
remaining activity at 10 µM [2, 15]: 29.2%
remaining activity at 10 µM [3, 15]: 84.7%
remaining activity at 10 µM [4, 15]: 89.7%
remaining activity at 10 µM [5, 15]: 38.5%
remaining activity at 10 µM [6, 15]: 2.79%
remaining activity at 10 µM [7, 15]: 90.5%
remaining activity at 10 µM [8, 15]: 102%
remaining activity at 10 µM [9, 15]: 106%
remaining activity at 10 µM [10, 15]: 108%
remaining activity at 10 µM [11, 15]: 105%
remaining activity at 10 µM [12, 15]: 113%
remaining activity at 10 µM [13, 15]: 103%
remaining activity at 10 µM [14, 15]: 82.1%
Structure (SMILES): COc1cc(F)ccc1-c1cc(Nc2cc(CS(C)(=N)=O)ccn2)ncc1F (stereo not shown) [BAY-1251152]

remaining activity at 10 µM [1, 16]: 133%
remaining activity at 10 µM [2, 16]: 50.1%
remaining activity at 10 µM [3, 16]: 83.6%
remaining activity at 10 µM [4, 16]: 99.5%
remaining activity at 10 µM [5, 16]: 72.3%
remaining activity at 10 µM [6, 16]: 3.85%
remaining activity at 10 µM [7, 16]: 97.8%
remaining activity at 10 µM [8, 16]: 24.3%
remaining activity at 10 µM [9, 16]: 79%
remaining activity at 10 µM [10, 16]: 106%
remaining activity at 10 µM [11, 16]: 108%
remaining activity at 10 µM [12, 16]: 115%
remaining activity at 10 µM [13, 16]: 99.5%
remaining activity at 10 µM [14, 16]: 86.7%
Structure (SMILES): COc1cc(F)ccc1-c1ncnc(Nc2cccc(C[S@](C)(=N)=O)c2)n1 [BAY-1143572]
